Measured values: ChEMBL document CHEMBL5137003, “Recent advancement in small molecules as HCV inhibitors” (Bioorg Med Chem, 2022)

Legend:
Hepatitis C virus [1] = assay: Antiviral activity against HCV JFH-1 infected in Huh7.5.1 cells assessed as decrease in intracellular and extracellular HCV RNA level measured after 3 days by RT-qPCR assay; assay type: functional, organism-based, Hepacivirus hominis; settings: JFH-1, Huh-7.5.1, 72 h
Hepatitis C virus [2] = assay: Inhibition of HCV replication in human Huh7.5 cells after 3 hrs by renilla luciferase assay; assay type: functional, cell-based, Hepacivirus hominis; settings: Huh7.5, 3 h
[3] = Inhibition of Hepatitis C virus NS3 helicase measured by DNA unwinding based assay; set-up: species or system Hepacivirus hominis
Hepatitis C virus [4] = assay: Antiviral activity against HCV GT-3a; assay type: functional, organism-based, Hepacivirus hominis; settings: subtype 3a
[5] = Inhibition of hepatitis C virus p7 ion channel; set-up: species or system Hepacivirus hominis
[6] = molecular target: T1, Hepatitis C virus serine protease, NS3/NS4A (Hepatitis C virus, UniProt A3EZI9+D2K2A8); assay: Inhibition of HCV GT-1b NS3/4A protease measured by fluorescence assay; assay type: protein-complex assay, Hepacivirus hominis, subtype 1b
Hepatitis C virus [7] = assay: Inhibition of HCV replication; assay type: functional, Hepacivirus hominis
Hepatitis C virus [8] = assay: Antiviral activity against HCV GT-1b; assay type: functional, organism-based, Hepacivirus hominis; settings: subtype 1b
[9] = molecular target: T1, Hepatitis C virus serine protease, NS3/NS4A; assay: Inhibition of HCV GT-3a NS3/4A protease measured by fluorescence assay; assay type: protein-complex assay, Hepacivirus hominis, subtype 3a
Hepatitis C virus [10] = assay: Inhibition of HCV replicon cells; assay type: functional, Hepacivirus hominis
[11] = molecular target: T1, Hepatitis C virus serine protease, NS3/NS4A; assay: Inhibition of HCV GT-3a NS3/4A protease; assay type: protein-complex assay, Hepacivirus hominis, subtype 3a
Hepatitis C virus [12] = assay: Antiviral activity against HCV JFH-1 infected in Huh7.5 cells and measured after 4 days; assay type: functional, organism-based, Hepacivirus hominis; settings: JFH-1, Huh7.5, 96 h
Hepatitis C virus [13] = assay: Inhibition of HCV replication in human Huh7.5 cells cultured with SGR-Neo-RLuc-JFH1-2A replicon celIs measured after 72 hrs by luciferase assay; assay type: functional, cell-based, Hepacivirus hominis; settings: JFH-1, Huh7.5, 72 h
[14] = molecular target: T1, Hepatitis C virus serine protease, NS3/NS4A; assay: Inhibition of HCV GT1b recombinant NS3/4A protease using Ac-Glu-Glu-Val-Val-Ala-Cys-AMC as substrate and measured by fluorescence based assay; assay type: protein-complex assay, Hepacivirus hominis, subtype 1b
[15] = Inhibition of HCV GT1b full-length NS3/4A protease D168A mutant using Ac-Glu-Glu-Val-Val-Ala-Cys-AMC as substrate and measured by fluorescence based assay; set-up: species or system Hepacivirus hominis, subtype 1b
Hepatitis C virus [16] = assay: Antiviral activity against HCV infected in Huh-7.5.1 cells assessed as inhibition of HCV production measured after 24 hrs by titration assay; assay type: functional, organism-based, Hepacivirus hominis; settings: Huh-7.5.1, 24 h
[17] = Inhibition of Cy5-dT15 ssDNA to Hepatitis C virus subtype 1b (Con1) NS3 helicase measured by fluorescence polarization (FP) based ssDNA binding assay; set-up: species or system Hepacivirus hominis
Hepatitis C virus [18] = assay: Antiviral activity against HCV GT-1b infected in Huh-5-2 cells and measured after 24 hrs by luciferase assay; assay type: functional, organism-based, Hepacivirus hominis; settings: subtype 1b, Huh-5-2, 24 h
[19] = test system: Internal ribosome entry site (IRES); assay: Disruption of hepatitis C virus-internal ribosome entry site (IRES) RNA base stacking interaction; set-up: species or system Hepacivirus hominis
Hepatitis C virus [20] = assay: Antiviral activity against HCV GT-1b infected in Huh-5-2 cells and measured after 72 hrs by luciferase assay; assay type: functional, organism-based, Hepacivirus hominis; settings: subtype 1b, Huh-5-2, 72 h
Hepatitis C virus [21] = assay: Antiviral activity against HCV GT-3a infected in Huh-5-2 cells and measured after 72 hrs by luciferase assay; assay type: functional, organism-based, Hepacivirus hominis; settings: subtype 3a, Huh-5-2, 72 h
Hepatitis C virus [22] = assay: Antiviral activity against HCV GT-3a (S52) assessed as inhibition of viral replication measured by renilla luciferase assay; assay type: functional, organism-based, Hepacivirus hominis; settings: subtype 3a
Hepatitis C virus [23] = assay: Antiviral activity against HCV assessed as inhibition of viral fusion and replication at attachment stage; assay type: functional, organism-based, Hepacivirus hominis
[24] = Inhibition of Hepatitis C virus NS3 protease; set-up: species or system Hepacivirus hominis
[25] = molecular target: RNA-directed RNA polymerase (Hepacivirus hominis, UniProt O39930); assay: Inhibition of Hepatitis C virus NS5B RNA-dependent-RNA-polymerase
Hepatitis C virus [26] = assay: Antiviral activity against HCV GT-1a expressing NS5B C316Y mutant variant; assay type: functional, organism-based, Hepacivirus hominis; settings: subtype 1a
Hepatitis C virus [27] = assay: Antiviral activity against HCV GT-1a expressing NS5B S365A mutant variant; assay type: functional, organism-based, Hepacivirus hominis; settings: subtype 1a
Hepatitis C virus [28] = assay: Antiviral activity against HCV GT-4a; assay type: functional, organism-based, Hepacivirus hominis; settings: subtype 4a

## Cc1cc(Oc2ccc(N)cn2)ccc1Cl
Hepatitis C virus [1]
  EC50: 80 nM

## O=C(NCc1ccco1)c1ccc2[nH]c(COc3ccc(C45CC6CC(CC(C6)C4)C5)cc3)nc2c1
Hepatitis C virus [2]
  EC50: 1500 nM

## COc1ccc2c(c1)c(C=C1C(=O)NC(=S)NC1=O)cn2C(=O)c1cccc2ccccc12
[3]
  IC50: 23500 nM

## COC(=O)N[C@H](C(=O)N1CCC[C@H]1c1nc(C#CC#Cc2ccc(-c3c[nH]c([C@@H]4CCCN4C(=O)[C@@H](NC(=O)OC)C(C)C)n3)cc2)c[nH]1)C(C)C
Hepatitis C virus [4]
  EC50: 2.45 nM

## O=C1CCC(C23CC4CC(CC(C4)C2)C3)=NN1c1ccccc1
[5]
  IC50: 520 nM

## Cc1cc(NC(=O)Cc2csc(NS(=O)(=O)c3ccccc3)n2)ccc1Br
[6]
  IC50: 2200 nM

## CCN(CC)c1ccc(Oc2ccc(-c3[nH]c4cccc(F)c4c(=O)c3C)cc2F)cc1
Hepatitis C virus [7]
  EC50: 5 nM

## O=C(N[C@@H](C(=O)N1CCC[C@H]1c1ncc(-c2ccc(-c3ccc(-c4cnc([C@@H]5CCCN5C(=O)[C@H](NC(=O)C5CC5)c5ccccc5)s4)cc3)cc2)s1)c1ccccc1)C1CC1
Hepatitis C virus [8]
  EC50: 0.003 nM

## COc1ccc2c(c1)c(C=C1C(=O)NC(=S)NC1=O)cn2C(=O)c1ccc2ccccc2c1
[3]
  IC50: 21400 nM

## Cc1ccc(S(=O)(=O)Nc2ccccc2C(=O)Nc2nc3c(Cl)ccc(Cl)c3s2)cc1
[9]
  IC50: 1600 nM

## O=C1NC(=S)NC(=O)C1=Cc1cn(C(=O)c2ccc3ccccc3c2)c2ccccc12
[3]
  IC50: 21600 nM

## COC(=O)N[C@H](C(=O)N1CCC[C@H]1c1ncc(-c2ccc(C#CC#Cc3cnc([C@@H]4CCCN4C(=O)[C@H](NC(=O)OC)c4ccccc4)[nH]3)c(-c3cccc(F)c3F)c2)[nH]1)C(C)C
Hepatitis C virus [4]
  IC50: 0.016 nM

## O=C(Nc1ccn([C@@H]2O[C@H](CO)[C@@H](O)C2(F)F)c(=O)n1)C1Cc2ccccc2C1
Hepatitis C virus [10]
  IC50: 10 nM

## [2H]C([2H])([2H])Oc1cc2ccnc(O[C@@H]3C[C@H]4C(=O)N[C@]5(C(=O)NS(=O)(=O)C6(C)CC6)C[C@H]5/C=C/CC[C@@H](C)C[C@@H](CC)[C@H](NC(=O)OC(C)(C)C(F)(F)F)C(=O)N4C3)c2cc1F
[11]
  IC50: 4.8 nM

## CCC[C@H](NC(=O)[C@@H]1[C@H]2CCC[C@H]2CN1C(=O)[C@@H](NC(=O)[C@@H](NC(=O)c1cnc(C(=O)NCCOCCOCCOc2cc3c4c(cccc4c2)C(=O)N(C2CCC(=O)NC2=O)C3=O)cn1)C1CCCCC1)C(C)(C)C)C(=O)C(=O)NC1CC1 (stereo partly drawn)
Hepatitis C virus [12]
  IC50: 748 nM

## O=C(Nc1ccc(C2=NCCN2)cc1)c1cc(C(=O)Nc2ccc(C3=NCCN3)cc2)cc(C(=O)Nc2ccc(C3=NCCN3)cc2)c1
Hepatitis C virus [13]
  IC50: 14000 nM

## CC(C)c1ccc(NC(=O)N[C@@H](Cc2c[nH]c3ccccc23)C(=O)NCCCN2CCCCC2)cc1
[14]
  IC50: 4600 nM
[15]
  IC50: 5980 nM

## CC1(NCc2nnc(-c3cc(O)cc(O)c3)[nH]2)C2CC3CC(C2)CC1C3 (stereo not drawn)
Hepatitis C virus [16]
  IC50: 6420 nM

## CCCCC(O)c1cccc(=O)o1 (stereo not drawn)
[17]
  IC50: 2800 nM

## CCOC(=O)N[C@@H](CC(C)C)C(=O)N1CCC[C@H]1C(=O)Nc1cccc(C#CC#Cc2cccc(NC(=O)[C@@H]3CCCN3C(=O)[C@H](CC(C)C)NC(=O)OCC)c2)c1
Hepatitis C virus [18]
  EC50: 0.0399 nM

## CN1CCN(CCCNc2nc3cc([N+](=O)[O-])ccc3nc2NCc2ccc(NC(=O)/C=C/c3ccc(N(C)C)cc3)cc2)CC1
[19]
  EC50: 67000 nM

## CCOC(=O)N[C@@H](C(=O)N1CCC[C@@H]1C(=O)Nc1ccc2c(c1)Cc1cc(NC(=O)[C@H]3CCCN3C(=O)[C@H](NC(=O)OCC)c3ccccc3)ccc1-2)c1ccccc1
Hepatitis C virus [20]
  EC50: 0.036 nM
Hepatitis C virus [21]
  EC50: 1.2 nM

## CCCCOC(=O)N[C@H](C(=O)N1CCC[C@H]1C(=O)Nc1ccc(-c2ccc(NC(=O)[C@@H]3CCCN3C(=O)[C@@H](NC(=O)OCCCC)c3ccccc3)cc2)cc1)c1ccccc1
Hepatitis C virus [8]
  EC50: 0.0067 nM

## COc1ccc(N/C=C2\C(=O)N(Cc3ccccc3)c3ccccc32)cc1
Hepatitis C virus [4]
  EC50: 738 nM

## CC(C)(C)OC(=O)c1c(NC(=O)NCc2c(C(F)(F)F)sc3c2CCNC3)sc2c1CCCC2
Hepatitis C virus [22]
  EC50: 0.21 nM

## COc1ccc2cc3[n+](cc2c1OC)CCc1cc2c(cc1-3)OCO2 [BERBERINE]
Hepatitis C virus [23]
  EC50: 7870 nM

## O=C(O[C@@H]1O[C@@H]2COC(=O)c3cc(O)c(O)c(O)c3-c3c(cc(O)c(O)c3O)C(=O)O[C@H]([C@H]1O)[C@@H]2O)c1cc(O)c(O)c(O)c1 [CORILAGIN]
[24]
  IC50: < 1000 nM
[25]
  IC50: 20000 nM

## CNC(=O)c1c(-c2ccc(F)cc2)oc2cc(N(C)S(C)(=O)=O)c(-c3ccc4c(n3)-c3cc5c(F)cccc5n3CO4)cc12 [MK-8876]
Hepatitis C virus [26]
  EC50: 2.3 nM
Hepatitis C virus [27]
  EC50: 1 nM

## COC(=O)N[C@H](C(=O)N1CCC[C@H]1C(=O)Nc1ccc([C@@H]2CC[C@@H](c3ccc(NC(=O)[C@@H]4CCCN4C(=O)[C@@H](NC(=O)OC)C(C)C)cc3)N2c2ccc(C(C)(C)C)cc2)cc1)C(C)C [OMBITASVIR]
Hepatitis C virus [28]
  EC50: 0.00171 nM
